Laboratory results: US9649309B2 (priority 2014, dated 2017)
Like-named read-outs stand apart in the source and are kept apart here.

Legend:
Tyro3 [1] = biological target: T1, Tyro3 (Homo sapiens (Human), UniProt Q06418); test: biochemical
Axl [2] = biological target: T2, Axl (Homo sapiens (Human), UniProt P30530); test: biochemical
MerTK = MerTK (Homo sapiens (Human), UniProt Q12866); details: read-out: IC50 MerTK
Axl [3] = biological target: T2, Axl; details: read-out: IC50 Axl
Tyro3 [4] = biological target: T1, Tyro3; details: read-out: IC50 Tyro3

T2 sequence (P30530 26-894 limits assumed): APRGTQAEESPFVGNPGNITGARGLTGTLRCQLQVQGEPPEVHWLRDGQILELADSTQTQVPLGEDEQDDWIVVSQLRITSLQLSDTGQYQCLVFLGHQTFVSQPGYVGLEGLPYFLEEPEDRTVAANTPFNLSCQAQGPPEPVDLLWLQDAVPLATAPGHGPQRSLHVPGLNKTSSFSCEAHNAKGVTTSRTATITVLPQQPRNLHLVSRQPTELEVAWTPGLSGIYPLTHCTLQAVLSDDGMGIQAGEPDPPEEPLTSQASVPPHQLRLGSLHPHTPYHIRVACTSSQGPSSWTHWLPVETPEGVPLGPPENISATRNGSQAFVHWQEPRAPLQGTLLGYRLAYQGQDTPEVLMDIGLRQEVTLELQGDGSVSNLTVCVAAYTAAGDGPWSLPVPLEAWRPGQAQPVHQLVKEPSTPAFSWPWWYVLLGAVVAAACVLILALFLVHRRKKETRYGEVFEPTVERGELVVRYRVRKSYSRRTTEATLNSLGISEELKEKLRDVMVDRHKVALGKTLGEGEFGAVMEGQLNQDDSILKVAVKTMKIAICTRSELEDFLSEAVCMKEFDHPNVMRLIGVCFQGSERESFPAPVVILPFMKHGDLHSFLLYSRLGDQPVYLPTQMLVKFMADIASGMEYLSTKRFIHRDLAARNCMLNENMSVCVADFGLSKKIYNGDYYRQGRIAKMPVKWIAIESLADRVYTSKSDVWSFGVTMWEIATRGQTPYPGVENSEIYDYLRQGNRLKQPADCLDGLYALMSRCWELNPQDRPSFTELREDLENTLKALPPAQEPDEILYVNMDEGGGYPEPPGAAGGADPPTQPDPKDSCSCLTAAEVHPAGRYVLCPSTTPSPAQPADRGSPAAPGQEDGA
T1 sequence (Q06418 41-890 limits assumed): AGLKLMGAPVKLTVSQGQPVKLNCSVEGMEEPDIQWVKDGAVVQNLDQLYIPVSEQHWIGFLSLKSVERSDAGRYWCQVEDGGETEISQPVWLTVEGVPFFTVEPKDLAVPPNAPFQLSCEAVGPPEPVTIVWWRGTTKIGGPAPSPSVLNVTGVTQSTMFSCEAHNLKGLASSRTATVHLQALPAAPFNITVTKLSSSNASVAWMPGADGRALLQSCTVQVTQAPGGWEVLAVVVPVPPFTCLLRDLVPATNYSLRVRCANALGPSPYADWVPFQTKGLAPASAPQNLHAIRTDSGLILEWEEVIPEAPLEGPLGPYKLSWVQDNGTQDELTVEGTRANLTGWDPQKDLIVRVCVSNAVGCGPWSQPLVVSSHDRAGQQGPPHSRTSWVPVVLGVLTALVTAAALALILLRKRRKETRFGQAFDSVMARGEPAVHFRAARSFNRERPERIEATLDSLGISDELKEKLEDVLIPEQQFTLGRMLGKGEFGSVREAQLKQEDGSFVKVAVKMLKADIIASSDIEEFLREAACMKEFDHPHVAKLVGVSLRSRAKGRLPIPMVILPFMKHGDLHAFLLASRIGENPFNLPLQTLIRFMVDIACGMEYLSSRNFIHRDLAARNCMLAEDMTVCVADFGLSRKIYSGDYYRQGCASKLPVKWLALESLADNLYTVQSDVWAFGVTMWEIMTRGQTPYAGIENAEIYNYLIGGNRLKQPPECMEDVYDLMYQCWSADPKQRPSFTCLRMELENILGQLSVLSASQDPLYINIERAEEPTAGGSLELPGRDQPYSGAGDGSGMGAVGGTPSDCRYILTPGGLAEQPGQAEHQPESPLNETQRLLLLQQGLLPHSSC
MerTK, sequence (Q12866 21-999 limits assumed): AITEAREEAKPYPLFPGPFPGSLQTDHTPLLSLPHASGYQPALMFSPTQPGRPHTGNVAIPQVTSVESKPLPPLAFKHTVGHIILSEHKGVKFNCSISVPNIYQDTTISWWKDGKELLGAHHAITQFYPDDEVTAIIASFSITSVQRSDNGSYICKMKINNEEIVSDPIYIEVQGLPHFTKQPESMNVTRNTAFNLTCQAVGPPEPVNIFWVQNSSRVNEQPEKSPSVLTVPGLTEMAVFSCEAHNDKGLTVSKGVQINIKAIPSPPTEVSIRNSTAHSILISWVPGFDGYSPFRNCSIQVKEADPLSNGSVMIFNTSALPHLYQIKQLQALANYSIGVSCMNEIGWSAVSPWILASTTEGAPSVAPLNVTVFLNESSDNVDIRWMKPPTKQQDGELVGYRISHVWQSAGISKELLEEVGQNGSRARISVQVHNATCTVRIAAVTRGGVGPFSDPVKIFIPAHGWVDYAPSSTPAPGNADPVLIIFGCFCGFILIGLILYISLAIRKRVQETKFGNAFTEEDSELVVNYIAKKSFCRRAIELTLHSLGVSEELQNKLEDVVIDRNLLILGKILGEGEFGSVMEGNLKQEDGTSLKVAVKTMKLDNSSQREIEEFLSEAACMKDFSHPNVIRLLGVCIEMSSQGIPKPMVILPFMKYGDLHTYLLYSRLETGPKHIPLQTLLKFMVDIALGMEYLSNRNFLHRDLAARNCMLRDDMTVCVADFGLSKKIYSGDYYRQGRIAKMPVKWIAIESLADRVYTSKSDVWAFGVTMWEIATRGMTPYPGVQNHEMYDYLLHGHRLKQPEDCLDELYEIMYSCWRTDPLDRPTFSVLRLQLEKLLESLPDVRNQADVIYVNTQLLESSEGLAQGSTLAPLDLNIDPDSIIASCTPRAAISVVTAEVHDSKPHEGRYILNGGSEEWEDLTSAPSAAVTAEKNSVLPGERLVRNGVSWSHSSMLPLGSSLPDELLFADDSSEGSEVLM

IC50 (MerTK) [nM]	IC50 (Axl [3]) [nM]	IC50 (Tyro3 [4]) [nM]	Structure (SMILES)	IC50 (Tyro3 [1]) [nM]	IC50 (Axl [2]) [nM]
			CCCCNc1ncc(-c2ncc(COCc3ccccc3)s2)c(N[C@H]2CC[C@H](O)CC2)n1 [UNC2863A]	1220	2610
			CCCCNc1ncc(-c2cc(NC(C)(C)C)ncn2)c(N[C@H]2CC[C@H](O)CC2)n1 [UNC3200A]	259	480
			CCCCNc1ncc(C(=O)NC2CCC2)c(N[C@H]2CC[C@H](O)CC2)n1 [UNC2737A]	443	491
			CCCCNc1ncc(-c2cc(NC(C)C)ncn2)c(N[C@H]2CC[C@H](O)CC2)n1 [UNC3192A]	77	86
1.1	9.2	8.5	CCCCNc1ncc(-c2ccc(C=C3CCN(C(C)C)CC3)cn2)c(N[C@H]2CC[C@H](O)CC2)n1 [UNC4340A]		
			CCCCNc1ncc(C(=O)NCCCN2CCOCC2)c(N[C@H]2CC[C@H](O)CC2)n1 [UNC1839A]	1070	951
			CCCCNc1ncc(-c2cc(NC3CCCC3)ncn2)c(N[C@H]2CC[C@H](O)CC2)n1 [UNC3199A]	847	1360
			CCCCNc1ncc(-c2ccc(CNCC3CC3)cn2)c(N[C@H]2CC[C@H](O)CC2)n1 [UNC2547A]	11	30
			CCCCNc1ncc(-c2cc(NC3CCCCC3)ncn2)c(N[C@H]2CC[C@H](O)CC2)n1 [UNC3194A]	239	260
			CCCCNc1ncc(-c2ccc(CN3CCCN(C)CC3)cn2)c(N[C@H]2CC[C@H](O)CC2)n1 [UNC2405A]	98	183
			CCCCNc1ncc(-c2ccc(C(=O)NC3CCN(C)CC3)o2)c(N[C@H]2CC[C@H](O)CC2)n1 [UNC3181A]	507	1030
			CCCCNc1ncc(C(=O)NC2CC(C)(C)N(C)C(C)(C)C2)c(N[C@H]2CC[C@H](O)CC2)n1 [UNC2695A]	76	233
			CCCCNc1ncc(-c2ccc(CNCc3ccccc3)cn2)c(N[C@H]2CC[C@H](O)CC2)n1 [UNC2572A]	43	136
			CCCCNc1ncc(-c2ccc(F)cn2)c(NC[C@H]2CC[C@H](N)CC2)n1 [UNC3021A]	114	621
			CCCCNc1ncc(-c2ccc(CCCN3CCN(C)CC3)cn2)c(N[C@H]2CC[C@H](O)CC2)n1 [UNC2792A]	75	191
			CCCCNc1ncc(-c2cnccn2)c(N[C@H]2CC[C@H](O)CC2)n1 [UNC2794A]	158	604
			CCCCNc1ncc(-c2ccc(CN3CCOCC3)o2)c(N[C@H]2CC[C@H](O)CC2)n1 [UNC2898A]	374	2550
			CCCCNc1ncc(-c2ccc(CCN3CCN(C)CC3)cn2)c(N[C@H]2CC[C@H](O)CC2)n1 [UNC2795A]	82	211
			CCCCNc1ncc(-c2cc(N3CCN(C)CC3)ncn2)c(N[C@H]2CC[C@H](O)CC2)n1 [UNC3197A]	1170	1680
			CCCCNc1ncc(-c2cccc(CN3CCN(C)CC3)n2)c(N[C@H]2CC[C@H](O)CC2)n1 [UNC2622A]	162	296
			CCCCNc1ncc(-c2ccc(CNCc3ccncc3)cn2)c(N[C@H]2CC[C@H](O)CC2)n1 [UNC2571A]	18	44
4.4	74	66	CCCCNc1ncc(-c2ccc(CC3CCN(C)CC3)cn2)c(N[C@H]2CC[C@H](O)CC2)n1 [UNC4337A, Trans-4-((2-(butylamino)-5-(5-((1-methylpiperidin-4-yl)methyl)pyridin-2-yl)pyrimidin-4-yl)amino)cyclohexan-1-ol]		
			CCCCNc1ncc(C(=O)NCc2ccncc2)c(N[C@H]2CC[C@H](O)CC2)n1 [UNC1849A]	1740	1260
			CCCCNc1ncc(-c2cc(N3CCCC3)ncn2)c(N[C@H]2CC[C@H](O)CC2)n1 [UNC3195A]	230	188

IC50 (MerTK) [nM]	IC50 (Axl [3]) [nM]	IC50 (Tyro3 [4]) [nM]	Structure (SMILES)	IC50 (Tyro3 [1]) [nM]	IC50 (Axl [2]) [nM]
			CCCCNc1ncc(C(=O)NCCCCO)c(N[C@H]2CC[C@H](O)CC2)n1 [UNC1844A]	1080	1180
			CCCCNc1ncc(-c2ccc(CN3CC(F)(F)C3)o2)c(N[C@H]2CC[C@H](O)CC2)n1 [UNC2900A]	370	1850
			CCCCNc1ncc(-c2ccc(CN3CCCC3)cn2)c(N[C@H]2CC[C@H](O)CC2)n1 [UNC2490A]	18	36
			CCCCNc1ncc(-c2ncc(CN3CCCC3)s2)c(N[C@H]2CC[C@H](O)CC2)n1 [UNC4223A]	14	29
			CCCCNc1ncc(C(=O)NCC2CCN(C3CCCC3)CC2)c(N[C@H]2CC[C@H](O)CC2)n1 [UNC2743A]	84	166
			CCCCNc1ncc(C(=O)NCCc2ccc(F)cc2)c(N[C@H]2CC[C@H](O)CC2)n1 [UNC1850A]	1210	1640
			CCCCNc1ncc(-c2ccc(C(=O)N(C)C3CCN(C)CC3)cn2)c(N[C@H]2CC[C@H](O)CC2)n1 [UNC2915A]	6.5	49
			CCCCNc1ncc(C(=O)NCC2CCN(C)CC2)c(N[C@H]2CC[C@H](O)CC2)n1 [UNC2742A]	247	534
			CCCCNc1ncc(C(=O)NC2CCCCCC2)c(N[C@H]2CC[C@H](O)CC2)n1 [UNC2734A]	505	665
			CCCCNc1ncc(-c2ccc(C#CCN3CCN(C)CC3)cn2)c(N[C@H]2CC[C@H](O)CC2)n1 [UNC2793A]	60	153
			CCCCNc1ncc(-c2cc(NC3CC3)ncn2)c(N[C@H]2CC[C@H](O)CC2)n1 [UNC3193A]	115	169
			CCCCNc1ncc(-c2ccc3ccccc3n2)c(N[C@H]2CC[C@H](O)CC2)n1 [UNC2860A]	755	30000
			CCCCNc1ncc(C(=O)Nc2ccc(CCO)cc2)c(N[C@H]2CC[C@H](O)CC2)n1 [UNC1846A]	1070	1190
			CCCCNc1ncc(C(=O)NC2CCN(C3CCN(C)CC3)CC2)c(N[C@H]2CC[C@H](O)CC2)n1 [UNC2698A]	43	175
	30000	15100	CCCCNc1ncc(-c2cc(Nc3cccc(-c4ccccc4)c3)ncn2)c(N[C@H]2CC[C@H](O)CC2)n1 [UNC4353A]		
			CCCCCNc1cc(-c2cnc(NCCCC)nc2N[C@H]2CC[C@H](O)CC2)ncn1 [UNC3201A]	195	112
			CCCCNc1ncc(C(=O)NCc2ccc(CN3CCOCC3)cc2)c(N[C@H]2CC[C@H](O)CC2)n1 [UNC2735A]	145	189
			CCCCNc1ncc(-c2cc(N3CCCCC3)ncn2)c(N[C@H]2CC[C@H](O)CC2)n1 [UNC3198A]	3740	6070
	47	22	CCCCNc1ncc(-c2ccc(CN3CCN[C@@H](C)C3)cn2)c(NC2CCC(O)CC2)n1 (stereo partly shown) [UNC4106A]		
			CCCCNc1ncc(-c2cc(N3CCOCC3)ncn2)c(N[C@H]2CC[C@H](O)CC2)n1 [UNC3196A]	1000	2130
	408	123	CCCCNc1ncc(C(=O)NC2CCN(Cc3cccnc3)CC2)c(N[C@H]2CC[C@H](O)CC2)n1 [UNC2802A]		
	5270	2770	CCCCNc1ncc(-c2ccccn2)c(NCCCCCO)n1 [UNC2964A]		
	977	305	CCCCNc1ncc(C(=O)NCc2ccc(-c3ccc(C#N)cc3)nc2)c(N[C@H]2CC[C@H](O)CC2)n1 [UNC4239A]		

Structure (SMILES)	IC50 (MerTK) [nM]	IC50 (Axl [3]) [nM]	IC50 (Tyro3 [4]) [nM]	IC50 (Tyro3 [1]) [nM]	IC50 (Axl [2]) [nM]
CCCCNc1ncc(-c2ccc(CNC3CC4CCC(C3)N4C)cn2)c(N[C@H]2CC[C@H](O)CC2)n1 (stereo partly shown) [UNC4163A]		20	8.7		
CCCCNc1ncc(-c2cncc(N3CCOCC3)n2)c(N[C@H]2CC[C@H](O)CC2)n1 [UNC3138A]		1250	935		
